The source of these data is US20060258631A1, “Methods of using fatty-acid esters of estrogens and serotonin reuptake inhibiting compounds for reducing the body weight of a mammal and compositions containing the same” (Oleoyl-Estrone Development SL, priority 2004, published 2006).

Where “and” joins values, the source holds several entries; their conditions need not be identical. Equal values may be shown once. Entries after “also recorded” stand apart in the source; their conditions may differ.

Test [1] in a line: Body weight and lipid change of overweight rats treated 10 days by daily gavage. Format: in vivo. The settings on record: overweight male Wistar rats, 10-day daily gavage; oleoyl-estrone 10 micromol/kg, dexfenfluramine 3 mg/kg, sibutramine 5 mg/kg. The source says: (§1) Forty-five day-old male Wistar rats were used. The rats were kept in collective cages in a light cycle, temperature, and humidity-controlled environment. They were fed tap water and a self-selected cafeteria diet (containing an excess of tasty, energy-dense foods, as well as standard chow) for 45 additional days. Then they were subjected to a 5-day diet adaptation period, in which they had rat chow as the sole food available. At this point, the rats weighed 350-370 g and had plenty of body fat. Maintaining the availability of rat chow (daily consumption by the group was recorded) and tap water, body weight was recorded daily. The animals were given a daily gavage of either 0.2 mL of sunflower oil or the same vehicle containing oleoyl-estrone.
(§2) Six groups of animals were used: • a) controls, receiving a daily gavage of 0.2 mL of sunflower oil; • b) oleoyl-estrone, receiving the same daily gavage of 0.2 mL of sunflower oil, but containing oleoyl-estrone, to a a daily dose of 10 micromol per kg of body weight; • c) dexfenfluramine: receiving the same daily gavage of 0.2 mL of sunflower oil, and a second gavage of 0.2 mL of dexfenfluramine in water, to a a daily dose of 3 mg per kg of body weight; • d) dexfenfluramine plus oleoyl-estrone: receiving both gavages, 0.2 mL of oil and oleoyl-estrone (to a daily dose of 10 micromol per kg of body weight) and 0.2 mL of water and dexfenfluramine, to a daily dose of 3 mg per kg of body weight; • e) sibutramine: receiving the same daily gavage of 0.2 mL of sunflower oil, and a second gavage of 0.2 mL of sibutramine in water, to a a daily dose of 5 mg per kg of body weight; • f) sibutramine plus oleoyl-estrone: receiving both gavages, 0.2 mL of oil and oleoyl-estrone (to a daily dose of 10 micromol per kg of body weight) and 0.2 mL of water and sibutramine, to a daily dose of 5 mg per kg of body weight.
(§3) The treatment was maintained up to 10 days, when the animals were killed by decapitation, and their blood and carcass were used for analyses. Plasma was separated from the blood. The plasma was preserved frozen until its utilization for the estimation of glucose, cholesterol, triacylglycerol, free fatty acids, and insulin levels using standard methods, as well as for the estimation of alanine- and aspartate-transaminase activities.
The rat corpses, partially exsanguinated were dissected. The stomach and intestines were cleaned of their contents. The remaining carcass was sealed into polyethylene bags, autoclaved and blended to a fine paste. This paste was analysed for lipid content by extraction using trichloromethane/methanol and corrected by its water content. Lipid content in the paste was referred to whole in vivo body weight for comparison.
(§4) Samples of the rat paste were dried and used for the estimation of their caloric content using a bomb calorimeter. The initial values for lipid content were calculated from the corresponding in vivo body weights at the beginning of the experiment and applying to all the animals the mean percentage of lipid content found in the control (vehicle only) group at the end of the experiment. This same procedure was used to determine the overall energy content of the carcasses by using the experimentally found energy content of the rats in the control group. Likewise, the energy content of the pellet diet was also measured and used to estimate the energy intake of the animals.

Test [2] can be described thus: Energy balance (carcass energy, food/energy intake, energy expenditure) of overweight rats treated 10 days. The test is classed as in vivo, male Wistar rats. The note with it: for decrease in food consumption / loss of energy from the internal stores / net contribution of internal stores to energy expenditure: overweight male Wistar rats, 10-day daily gavage, same doses; for carcass energy content (ranking among groups): end of 10-day treatment, bomb calorimeter.
From the text: as §1, §2, §3, §4
Energy expenditure (Ee) was estimated as the difference between energy intake (Ei) and accrual (Ea), since: Ei=Ee±Ea.

Test [3] can be described thus: Plasma composition of rats after 10 days of treatment. The test is classed as in vivo, male Wistar rats. The settings on record: after 10-day treatment, compared with other groups.
From the text: as §1, with “oleoyl-estrone. […]” for “oleoyl-estrone.”

With `CCN[C@@H](C)Cc1cccc(C(F)(F)F)c1` [dexfenfluramine], in test [1], the “loss of body weight” value is 3% and 2.6%; the “loss of lipid (body lipid)” value is recorded as approximately 16%. Further, in test [2], the “decrease in food consumption” value turned out to be 23%, the “loss of energy from the internal stores” value stood at 546 kJ and the “net contribution of internal stores to energy expenditure” value was approximately 20%.
For `CCCCCCCC/C=C\CCCCCCCC(=O)Oc1ccc2c(c1)CC[C@@H]1[C@@H]2CC[C@]2(C)C(=O)CC[C@@H]12` [oleoyl-estrone, [3(Z)]-3-[(1-oxo-9-octadecenyl)oxy]-estra-1,3,5(10)-trien-17-one], the “loss of lipid (body lipid)” value in test [1] worked out at 13%. For the same compound, in test [2], the “carcass energy content (ranking among groups)” value is “smaller”, the “decrease in food consumption” value is 32% and the “loss of energy from the internal stores” value stood at 357 kJ. Besides, the plasma triacylglycerol levels result in test [3] is “lower; also recorded: decreased”.
`CC(C)CC(N(C)C)C1(c2ccc(Cl)cc2)CCC1` (stereo not shown) [sibutramine]: in test [1], the “loss of body weight” value was 4% and 3.8%; the “loss of lipid (body lipid)” value was determined as 15%. In test [2], the “carcass energy content (ranking among groups)” value is “smaller”, the “decrease in food consumption” value worked out at 26%, the “loss of energy from the internal stores” value came out at 403 kJ and the “net contribution of internal stores to energy expenditure” value is given as approximately 20%.
